pIC50: −log10 of the molar value. Like-named read-outs stand apart in the source and are kept apart here.
Assays:
α4β7 integrin = α4β7 integrin (Homo sapiens (Human), UniProt P13612+P26010); test: Integrin Adhesion Assay: Protocol 4 (MAdCAM-coated plate, RPMI-8866 cells with stable LOF mutation of the ITGB1 gene); assay type: cell-based
Procedure, shortened: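 RPMI-8866 cells with CRISPR/Cas9 knockout of ITGB1 (2×10^6/mL) were added to MAdCAM-coated wells with compound (1% DMSO) in HEPES/NaCl buffer with 1 mM MnCl2, 0.1 mM CaCl2 and 1% BSA, then incubated 1 h at 37 °C. After four washes, adherent cells were quantified by CellTiter-Glo luminescence. Percent inhibition versus DMSO and control compound was fitted to 4-parameter curves.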

α4β1 integrin = α4β1 integrin (Homo sapiens (Human), UniProt P05556+P13612); test: Integrin Adhesion Assay: Protocol 5 (VCAM-coated plate, RPMI-8866 cells with stable LOF mutation of the ITGB7 gene); assay type: cell-based
Procedure, shortened: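 RPMI-8866 B cells with CRISPR/Cas9 ITGB7 knockout (clonal, verified by flow cytometry) adhered to VCAM-coated wells for 1 h at 37° C in HEPES/NaCl buffer with 1 mM MnCl2, 0.1 mM CaCl2, 1% BSA, 1% DMSO. Bound cells quantified by CellTiter-Glo luminescence after washing; % inhibition versus DMSO and control, 4-parameter fit.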

[1] = Protocol 4, RPMI-8866 cells with LOF mutation of ITGB1, MAdCAM, read-out: Mean IC50 α4β7 KO
[2] = Protocol 5, RPMI-8866 cells with LOF mutation of ITGB7, VCAM, read-out: Mean IC50 α4β1 KO
[3] = RPMI-8866 cells with stable LOF mutation of the ITGB1 gene, read-out: Mean IC50 α4β7 KO^a
[4] = RPMI-8866 cells with stable LOF mutation of the ITGB7 gene, read-out: Mean IC50 α4β1 KO^b

Sequence of α4β1 integrin (P13612 34-1032): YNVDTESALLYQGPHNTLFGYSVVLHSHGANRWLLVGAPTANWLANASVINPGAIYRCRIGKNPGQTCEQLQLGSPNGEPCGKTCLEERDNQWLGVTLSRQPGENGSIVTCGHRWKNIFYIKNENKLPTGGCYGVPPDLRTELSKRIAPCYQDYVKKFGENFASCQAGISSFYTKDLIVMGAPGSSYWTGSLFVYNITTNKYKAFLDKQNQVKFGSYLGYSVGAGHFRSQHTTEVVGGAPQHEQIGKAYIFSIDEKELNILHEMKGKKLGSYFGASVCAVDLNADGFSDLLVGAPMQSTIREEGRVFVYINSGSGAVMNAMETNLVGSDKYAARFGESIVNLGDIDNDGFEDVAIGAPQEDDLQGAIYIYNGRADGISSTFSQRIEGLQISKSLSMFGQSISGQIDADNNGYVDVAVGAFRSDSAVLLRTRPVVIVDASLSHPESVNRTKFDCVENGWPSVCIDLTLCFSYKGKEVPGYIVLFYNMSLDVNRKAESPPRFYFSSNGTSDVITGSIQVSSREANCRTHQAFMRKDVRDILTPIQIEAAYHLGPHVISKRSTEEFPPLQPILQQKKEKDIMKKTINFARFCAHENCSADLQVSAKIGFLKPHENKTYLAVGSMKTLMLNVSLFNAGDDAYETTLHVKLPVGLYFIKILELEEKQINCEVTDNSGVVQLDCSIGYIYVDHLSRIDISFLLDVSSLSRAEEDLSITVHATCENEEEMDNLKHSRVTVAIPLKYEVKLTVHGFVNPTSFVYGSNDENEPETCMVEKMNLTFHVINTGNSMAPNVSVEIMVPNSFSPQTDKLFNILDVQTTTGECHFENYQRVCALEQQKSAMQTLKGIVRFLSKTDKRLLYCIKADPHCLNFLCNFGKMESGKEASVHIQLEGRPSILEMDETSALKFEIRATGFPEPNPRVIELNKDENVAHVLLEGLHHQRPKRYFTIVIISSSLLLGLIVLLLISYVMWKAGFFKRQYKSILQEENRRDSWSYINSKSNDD
Sequence of α4β1 integrin (P05556 21-798): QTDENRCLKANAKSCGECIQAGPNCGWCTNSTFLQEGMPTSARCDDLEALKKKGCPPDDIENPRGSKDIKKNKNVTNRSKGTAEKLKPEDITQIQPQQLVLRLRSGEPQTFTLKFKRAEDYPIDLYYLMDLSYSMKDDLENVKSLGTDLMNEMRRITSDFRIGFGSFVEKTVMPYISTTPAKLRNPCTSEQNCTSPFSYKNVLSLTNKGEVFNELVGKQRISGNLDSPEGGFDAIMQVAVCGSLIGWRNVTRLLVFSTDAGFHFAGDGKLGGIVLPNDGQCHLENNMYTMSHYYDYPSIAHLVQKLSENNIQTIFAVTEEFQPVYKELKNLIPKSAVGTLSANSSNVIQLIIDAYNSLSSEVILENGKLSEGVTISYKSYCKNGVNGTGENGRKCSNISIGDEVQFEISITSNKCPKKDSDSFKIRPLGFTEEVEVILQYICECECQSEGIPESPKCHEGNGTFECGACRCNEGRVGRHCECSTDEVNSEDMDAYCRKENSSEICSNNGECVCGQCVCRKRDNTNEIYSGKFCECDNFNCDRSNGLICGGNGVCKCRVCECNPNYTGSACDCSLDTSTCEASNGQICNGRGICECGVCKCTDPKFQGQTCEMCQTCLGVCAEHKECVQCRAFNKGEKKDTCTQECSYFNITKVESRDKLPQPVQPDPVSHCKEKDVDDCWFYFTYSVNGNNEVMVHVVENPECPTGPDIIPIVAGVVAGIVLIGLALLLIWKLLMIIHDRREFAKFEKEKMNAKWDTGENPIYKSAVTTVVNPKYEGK
Sequence of α4β7 integrin (P13612 34-1032): as the sequence (P13612 34-1032) above
Sequence of α4β7 integrin (P26010 20-798): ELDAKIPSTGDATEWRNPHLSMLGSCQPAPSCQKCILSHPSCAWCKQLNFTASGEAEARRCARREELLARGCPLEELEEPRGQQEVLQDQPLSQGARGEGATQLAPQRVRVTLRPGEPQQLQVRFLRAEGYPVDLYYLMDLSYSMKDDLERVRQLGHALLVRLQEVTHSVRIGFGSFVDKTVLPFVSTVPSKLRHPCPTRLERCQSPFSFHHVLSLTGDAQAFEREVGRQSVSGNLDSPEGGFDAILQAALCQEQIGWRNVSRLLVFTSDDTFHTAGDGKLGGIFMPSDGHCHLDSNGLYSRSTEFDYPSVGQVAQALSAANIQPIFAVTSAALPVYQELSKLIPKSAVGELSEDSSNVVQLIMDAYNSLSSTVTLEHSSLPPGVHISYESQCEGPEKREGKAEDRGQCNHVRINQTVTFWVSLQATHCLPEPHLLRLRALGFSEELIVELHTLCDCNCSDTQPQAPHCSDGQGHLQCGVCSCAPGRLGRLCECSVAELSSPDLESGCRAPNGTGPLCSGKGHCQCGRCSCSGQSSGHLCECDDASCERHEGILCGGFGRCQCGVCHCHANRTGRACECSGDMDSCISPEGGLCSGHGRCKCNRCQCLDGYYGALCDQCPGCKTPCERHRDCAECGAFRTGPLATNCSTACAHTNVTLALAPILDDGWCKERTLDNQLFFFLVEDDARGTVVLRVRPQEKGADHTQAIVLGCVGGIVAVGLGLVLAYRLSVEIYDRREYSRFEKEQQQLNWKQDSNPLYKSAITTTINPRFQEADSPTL

| Compound | pIC50 (α4β7 integrin; [1]) | pIC50 (α4β1 integrin; [2]) | pIC50 (α4β7 integrin; [3]) | pIC50 (α4β1 integrin; [4]) |
| --- | --- | --- | --- | --- |
| O=C(O)[C@H](Cc1cccc2c(-c3ncc(CN4CCCCC4)cc3C(F)(F)F)cccc12)NC(=O)C1(C(F)(F)F)CCN(CC(F)(F)F)CC1 [Compound 881] | 7.00 to 8.00 | < 6.00 | – | – |
| CC1(C)CCCN(Cc2cnc(-c3cccc4c(C[C@H](NC(=O)C5(C(F)(F)F)CCN(CC(F)(F)F)CC5)C(=O)O)cccc34)c3ccccc23)CC1 [Compound 876] | > 8.00 | < 6.00 | – | – |
| COc1ccc(CN2CCC(C(C)(C)C)CC2)c(OC)c1-c1cccc2c(C[C@H](NC(=O)c3c(C)cccc3F)C(=O)O)cccc12 [Compound 579] | – | – | > 8.00 | 6.00 to 7.00 |
| COc1ccc(CN(C)C)c(OC)c1-c1cccc2c(C[C@H](NC(=O)c3c(F)cccc3Cl)C(=O)O)cccc12 [Compound 610] | – | – | > 8.00 | 6.00 to 7.00 |
| O=C(O)[C@H](Cc1cccc2c(-c3nccc4ccc(CCCN5CCCCC5)cc34)cccc12)NC(=O)C1(C(F)(F)F)CCN(C2COC2)CC1 [Compound 547] | – | – | > 8.00 | 6.00 to 7.00 |
| O=C(O)[C@H](Cc1cccc2c(-c3ccc(CN4CCCCC4)cn3)cccc12)NC(=O)C1(C(F)(F)F)CCN(CC(F)F)CC1 [Compound 896] | 7.00 to 8.00 | < 6.00 | – | – |
| COc1c(CN2CCCCC2)ccnc1-c1cccc2c(C[C@H](NC(=O)c3c(C)cccc3F)C(=O)O)cccc12 [Compound 1020] | 7.00 to 8.00 | < 6.00 | – | – |
| O=C(O)[C@H](Cc1cccc2c(-c3ncc(CN4CCC5(CC4)CC5)c4ccccc34)cccc12)NC(=O)C1(C(F)(F)F)CCN(CC(F)F)CC1 [Compound 912] | > 8.00 | < 6.00 | – | – |
| COc1ccc(CN2CCCCC2)c(OC)c1-c1cccc2c(C[C@H](NC(=O)c3c(F)cccc3C(C)C)C(=O)O)cccc12 [Compound 571] | – | – | > 8.00 | < 6.00 |
| CN(C)Cc1ccc2c(-c3cccc4c(C[C@H](NC(=O)C5(C(F)(F)F)CCN(CC(F)(F)F)CC5)C(=O)O)cccc34)nccc2c1 [Compound 584] | – | – | 7.00 to 8.00 | < 6.00 |
| O=C(O)[C@H](Cc1cccc2c(-c3ncc(CN4CCN(C5CC5)CC4)c4ccccc34)cccc12)NC(=O)C1(C(F)(F)F)CCN(CC(F)(F)F)CC1 [Compound 868] | > 8.00 | < 6.00 | – | – |
| COc1cccc(CN2CCCC(F)C2)c1-c1cccc2c(C[C@H](NC(=O)c3c(C)cccc3F)C(=O)O)cccc12 (stereo partly drawn) [Compound 1015] | > 8.00 | 6.00 to 7.00 | – | – |
| O=C(O)[C@H](Cc1cccc2c(-c3ncc(CN4CCC[C@@H](F)C4)cc3C3CC3)cccc12)NC(=O)C1(C(F)(F)F)CCN(CC(F)F)CC1 [Compound 954] | > 8.00 | 6.00 to 7.00 | – | – |
| Cn1c(=O)c(-c2cccc3c(C[C@H](NC(=O)C4(C(F)(F)F)CCN(C5CC(F)(F)C5)CC4)C(=O)O)cccc23)c(C(F)(F)F)c2ccccc21 [Compound 493] | – | – | 7.00 to 8.00 | 6.00 to 7.00 |
| O=C(O)[C@H](Cc1cccc2c(-c3ncc(CN4CC(F)C4)c4ccccc34)cccc12)NC(=O)C1(C(F)(F)F)CCN(CC(F)(F)F)CC1 [Compound 865] | 7.00 to 8.00 | < 6.00 | – | – |
| COc1ccnc(OC)c1-c1cccc2c(C[C@H](NC(=O)c3c(C)cccc3F)C(=O)O)cccc12 [Compound 527] | – | – | 7.00 to 8.00 | < 6.00 |
| O=C(O)[C@H](Cc1cccc2c(-c3ncc(CN4CCC5(CC4)CC5)c4ccccc34)cccc12)NC(=O)C1(C(F)(F)F)CCN(C2COC2)CC1 [Compound 694] | > 8.00 | 6.00 to 7.00 | – | – |
| COc1ccc(CN2CCCC2)c(OC)c1-c1cccc2c(C[C@H](NC(=O)c3c(C)cccc3F)C(=O)O)cccc12 [Compound 596] | – | – | > 8.00 | 6.00 to 7.00 |
| Cn1c(=O)c(-c2cccc3c(C[C@H](NC(=O)C4(C(F)(F)F)CCN(C5CCOCC5C(F)(F)F)CC4)C(=O)O)cccc23)c(C(F)(F)F)c2ccccc21 (stereo partly drawn) [Compound 511] | – | – | 7.00 to 8.00 | < 6.00 |
| CCc1c(CN(C)C)ccc(OC)c1-c1cccc2c(C[C@H](NC(=O)c3c(C)cccc3F)C(=O)O)cccc12 [Compound 1044] | > 8.00 | 6.00 to 7.00 | – | – |

| Compound | pIC50 (α4β7 integrin; [1]) | pIC50 (α4β1 integrin; [2]) | pIC50 (α4β7 integrin; [3]) | pIC50 (α4β1 integrin; [4]) |
| --- | --- | --- | --- | --- |
| COc1ccc(CN2C[C@@H](C)O[C@@H](C)C2)c(OC)c1-c1cccc2c(C[C@H](NC(=O)c3c(C)cccc3F)C(=O)O)cccc12 [Compound 651] | – | – | > 8.00 | 6.00 to 7.00 |
| COc1ccc(CN2CCC(F)(F)CC2)c(OC)c1-c1cccc2c(C[C@H](NC(=O)C3(C(F)(F)F)CCN([C@@H]4COC[C@H]4F)CC3)C(=O)O)cccc12 [Compound 670] | – | – | 7.00 to 8.00 | 6.00 to 7.00 |
| COc1cc2c(c(OC)c1-c1cccc3c(C[C@H](NC(=O)C4(C(F)(F)F)CCN(CC(F)(F)F)CC4)C(=O)O)cccc13)CN(C1CCCCC1)CC2 [Compound 993] | > 8.00 | 6.00 to 7.00 | – | – |
| CCOCc1cc(CN2CCCCC2)c(-c2cccc3c(C[C@H](NC(=O)C4(C(F)(F)F)CCN(CC(F)(F)F)CC4)C(=O)O)cccc23)c(OC)c1 [Compound 751] | 7.00 to 8.00 | < 6.00 | – | – |
| COc1ccc(CN2CC(c3ccccc3)C2)c(OC)c1-c1cccc2c(C[C@H](NC(=O)C3(C(F)(F)F)CCN(CC(F)(F)F)CC3)C(=O)O)cccc12 [Compound 815] | 7.00 to 8.00 | < 6.00 | – | – |
| Cn1c(=O)c(-c2cccc3c(C[C@H](NC(=O)C4(C(F)(F)F)CCN(CC(F)F)CC4)C(=O)O)cccc23)c(C(F)(F)F)c2cc(C(F)(F)F)ccc21 [Compound 537] | – | – | 7.00 to 8.00 | < 6.00 |
| O=C(O)[C@H](Cc1cccc2c(-c3nc(CN4CCCCC4)cc4ccccc34)cccc12)NC(=O)C1(C(F)(F)F)CCN(CC(F)(F)F)CC1 [Compound 988] | 7.00 to 8.00 | < 6.00 | – | – |
| O=C(O)[C@H](Cc1cccc2c(-c3ncc(CCN4CCCCC4)c4ccccc34)cccc12)NC(=O)C1(C(F)(F)F)CCN(CC(F)F)CC1 [Compound 955] | > 8.00 | 6.00 to 7.00 | – | – |
| COc1ccc(CN2CCC(c3ccccc3)CC2)c(OC)c1-c1cccc2c(C[C@H](NC(=O)c3c(C)cccc3F)C(=O)O)cccc12 [Compound 570] | – | – | > 8.00 | 6.00 to 7.00 |
| COc1cccc(CCN2CCC(F)(F)CC2)c1-c1cccc2c(C[C@H](NC(=O)C3(C(F)(F)F)CCN(CC(F)F)CC3)C(=O)O)cccc12 [Compound 976] | > 8.00 | 6.00 to 7.00 | – | – |
| Cc1cccc(F)c1C(=O)N[C@@H](Cc1cccc2c(-c3c(C(F)(F)F)c4cc(CCN(C)C)ccc4n(C)c3=O)cccc12)C(=O)O [Compound 706] | > 8.00 | 6.00 to 7.00 | – | – |
| N#CC1(C(=O)N[C@@H](Cc2cccc3c(-c4ncc(CN5CCCCC5)c5ccccc45)cccc23)C(=O)O)CCN(CC(F)(F)F)CC1 [Compound 677] | – | – | 7.00 to 8.00 | < 6.00 |
| O=C(O)[C@H](Cc1cccc2c(-c3nccc4ccc(CCCN5CCC(F)(F)CC5)cc34)cccc12)NC(=O)C1(C(F)(F)F)CCN(CC(F)(F)F)CC1 [Compound 539] | – | – | > 8.00 | < 6.00 |
| COc1cc(CN2CCC[C@@H](F)C2)cc(C(F)(F)F)c1-c1cccc2c(C[C@H](NC(=O)C3(C(F)(F)F)CCN(CC(F)(F)F)CC3)C(=O)O)cccc12 [Compound 849] | 7.00 to 8.00 | < 6.00 | – | – |
| Cc1cc(CCN2CCCCC2)cnc1-c1cccc2c(C[C@H](NC(=O)C3(C(F)(F)F)CCN(CC(F)F)CC3)C(=O)O)cccc12 [Compound 756] | > 8.00 | < 6.00 | – | – |
| Cn1c(=O)c(-c2cccc3c(C[C@H](NC(=O)C4(C(F)(F)F)CCCN(CC5COC5)C4)C(=O)O)cccc23)c(C(F)(F)F)c2ccccc21 (stereo partly drawn) [Compound 1049] | 6.00 to 7.00 | < 6.00 | – | – |
| CN(Cc1cnc(-c2cccc3c(C[C@H](NC(=O)C4(C(F)(F)F)CCN(CC(F)(F)F)CC4)C(=O)O)cccc23)c2ccccc12)CC(F)F [Compound 922] | 7.00 to 8.00 | < 6.00 | – | – |
| COc1cccc(CCN2CCC(C)C(F)(F)CC2)c1-c1cccc2c(C[C@H](NC(=O)C3(C(F)(F)F)CCN(CC(F)F)CC3)C(=O)O)cccc12 (stereo partly drawn) [Compound 971] | > 8.00 | 6.00 to 7.00 | – | – |
| CC(C)Oc1cc(CN2CCCCC2)cnc1-c1cccc2c(C[C@H](NC(=O)C3(C(F)(F)F)CCN(CC(F)(F)F)CC3)C(=O)O)cccc12 [Compound 894] | > 8.00 | 6.00 to 7.00 | – | – |
